From patent US8633315B2, “Substituted hydroxyethyl amine compounds as beta-secretase modulators and methods of use” (Amgen Inc., priority 2007, dated 2014)

Assays:
[1] = molecular target: BACE1 (Homo sapiens, UniProt P56817); assay: In vitro enzymatic BACE FRET (fluorescence resonance energy transfer) assay; type: biochemical; settings: read-out: BACE 1 FRET assay
Procedure, shortened: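 Cleavage of a quenched peptide FRET substrate (50 nM) in 0.05 M acetate pH 4.2, 10% DMSO, 100 uM genapol, 1 h incubation. Reaction stopped by Tris neutralization; fluorescence read at excitation 488 nm / […].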

[2] = test system: Cells stably expressing Amyloid Precursor Protein (APP); assay: In vitro BACE cell-based assay (HEK cell assay): Aβ40 in conditioned medium by sandwich ELISA; settings: Homo sapiens, HEK293
Procedure, shortened: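 APP-stably-expressing cells were grown 24 h in DMEM/10% FBS, then treated for 24 h with 10-point doses starting at 100 μM or 10 μM, at 0.1% DMSO final. Aβ40 in conditioned medium was measured by sandwich ELISA (pAb40 capture, biotinylated 6E10 detection, europium time-resolved fluorescence); IC50 from percent inhibition.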

[3] = molecular target: CYP3A4 (CYP3A) (Homo sapiens, UniProt P08684); assay: CYP3A inhibition assay (midazolam, pooled human liver microsomes); type: in vitro ADME; settings: human, pooled human liver microsomes, pH 7.4, probe midazolam (printed as about […]); read-out: 3A4 IC50
[4] = Microsomal stability assay, human liver microsomes; type: in vitro ADME
Source text: (§1) Microsomal Stability Assay

[5] = Microsomal stability assay, rat liver microsomes; type: in vitro ADME
Source text: as §1

CYP3A4 (CYP3A), sequence (P08684 2-503): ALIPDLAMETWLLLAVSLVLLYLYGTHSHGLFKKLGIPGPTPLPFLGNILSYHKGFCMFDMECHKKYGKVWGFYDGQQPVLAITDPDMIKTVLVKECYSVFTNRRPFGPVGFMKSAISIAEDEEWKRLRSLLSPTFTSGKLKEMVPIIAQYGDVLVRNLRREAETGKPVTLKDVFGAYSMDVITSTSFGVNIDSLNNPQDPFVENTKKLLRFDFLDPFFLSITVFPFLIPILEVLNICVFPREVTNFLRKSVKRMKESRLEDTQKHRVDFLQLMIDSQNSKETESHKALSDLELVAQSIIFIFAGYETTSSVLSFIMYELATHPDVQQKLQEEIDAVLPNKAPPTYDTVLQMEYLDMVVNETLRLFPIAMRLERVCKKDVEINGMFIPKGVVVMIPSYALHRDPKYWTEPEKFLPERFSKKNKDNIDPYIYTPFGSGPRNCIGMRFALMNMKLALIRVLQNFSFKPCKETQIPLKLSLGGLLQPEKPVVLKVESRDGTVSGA
BACE1, sequence (P56817 46-501, species assumed): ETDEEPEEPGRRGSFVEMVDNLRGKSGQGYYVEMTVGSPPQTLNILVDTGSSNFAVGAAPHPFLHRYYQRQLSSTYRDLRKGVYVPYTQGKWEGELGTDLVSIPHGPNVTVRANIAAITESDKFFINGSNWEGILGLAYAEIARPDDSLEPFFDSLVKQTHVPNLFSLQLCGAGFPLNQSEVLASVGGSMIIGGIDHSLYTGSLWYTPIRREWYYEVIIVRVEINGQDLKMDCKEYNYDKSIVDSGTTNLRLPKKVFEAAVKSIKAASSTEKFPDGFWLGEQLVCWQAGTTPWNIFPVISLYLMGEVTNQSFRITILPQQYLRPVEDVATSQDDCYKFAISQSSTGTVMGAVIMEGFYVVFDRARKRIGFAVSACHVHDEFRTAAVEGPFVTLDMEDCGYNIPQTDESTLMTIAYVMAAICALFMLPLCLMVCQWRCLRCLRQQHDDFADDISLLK

Row | IC50 [1] [nM] | IC50 [2] [nM] | IC50 at 10 min [3] [nM] | HLM [4] [µL/min/mg] | RLM [5] [µL/min/mg] | SMILES
1 | 170 | 249 | 100 | 106 | 360 | C=CC[C@H](NC(=O)COC)[C@H](O)CN[C@H]1CC2(CCC2)Oc2c(-c3ccncc3)cc(CC(C)(C)C)cc21 [compound 219]
2 | 107 | 125 | 300 | 569 | 369 | C=CC[C@H](NC(=O)COC)[C@H](O)CN[C@H]1CC2(CCC2)Oc2c(-c3cccnc3)cc(CC(C)(C)C)cc21 [compound 220]
3 | 1220 | 891 | 1400 | 165 | 156 | C#CC[C@H](NC(=O)[C@@H](C)OC)[C@H](O)CN[C@H]1CC2(CCC2)Oc2c1cc(CC(C)(C)C)nc2NC [compound 222]
4 | 371 | 10000 | 3500 | 515 | 249 | CCC[C@H](NC(=O)[C@@H](C)OC)[C@H](O)CN[C@H]1CC2(CCC2)Oc2c1cc(CC(C)(C)C)nc2Cl [compound 223, (2R)-N-((1S)-1-((1R)-2-(((4′S)-8′-chloro-6′-(2,2-dimethylpropyl)-3′,4′-dihydrospiro[cyclobutane-1,2′-pyrano[2,3-c]pyridin]-4′-yl)amino)-1-hydroxyethyl)butyl)-2-(methyloxy)propanamide]
5 | 480 | 462 | 27000 | 40 | 14 | COC[C@H](NC(C)=O)[C@H](O)CN[C@H]1CC2(CCC2)Oc2ncc(CC(C)(C)C)cc21 [compound 225]
6 | 617 | 83 | 5000 | 161 | 259 | CCC[C@H](NC(=O)COC)[C@H](O)CN[C@H]1CC2(CCC2)Oc2c1cc(CC(C)(C)C)nc2NC [compound 226]
7 | 903 | 163 | 1500 | 119 | 212 | CCC[C@H](NC(=O)[C@@H](C)OC)[C@H](O)CN[C@H]1CC2(CCC2)Oc2c1cc(CC(C)(C)C)nc2NC [compound 227]
8 | 627 | 781 | 1500 | 165 | 345 | CCC[C@H](NC(=O)[C@H]1CCCO1)[C@H](O)CN[C@H]1CC2(CCC2)Oc2c1cc(CC(C)(C)C)nc2NC [compound 228, (2R)-N-((1S)-1-((1R)-2-(((4′S)-6′-(2,2-dimethylpropyl)-8′-(methylamino)-3′,4′-dihydrospiro[cyclobutane-1,2′-pyrano[2,3-c]pyridin]-4′-yl)amino)-1-hydroxyethyl)butyl)tetrahydro-2-furancarboxamide]
9 | 26 | 987 | 6100 | 139 | 150 | C=CC[C@H](NC(C)=O)[C@H](O)CN[C@H]1CC2(CCC2)Oc2c1cc(CC(C)(C)C)nc2Nc1ccccc1 [compound 229, N-((1S)-1-((1R)-2-(((4′S)-6′-(2,2-dimethylpropyl)-8′-(phenylamino)-3′,4′-dihydrospiro[cyclobutane-1,2′-pyrano[2,3-c]pyridin]-4′-yl)amino)-1-hydroxyethyl)-3-buten-1-yl)acetamide]
10 | 40 | 1380 | 3500 | 345 | 168 | C=CC[C@H](NC(=O)COC)[C@H](O)CN[C@H]1CC2(CCC2)Oc2c1cc(CC(C)(C)C)nc2Nc1ccccc1 [compound 230]
